One series concerns HIV-1. Also noted: method as in PMID 32229336, PMID 21561135, PMID 33172265, PMID 34445872. The conditions noted are these: other tiglianes from the literature; ref [25],[26],[27],[28],[29]; read-out: IC50 anti-HIV-1 activity; cited from earlier work.
A further series has as its system HIV-1 NL4.3. The series is described as follows: anti-HIV replication assay, HIV-1 NL4.3 in MT-4 cells (MTS/PES viability readout). It counts as cell-based. How it is done:
(§1) The MT-4 cell line was a kind gift from Dr. L. Montagner (at that time at the Pasteur Institute; Paris, France). This cell line was cultured in RPMI medium (Thermo Fisher Scientific, Waltham, MA, USA) containing 10% fetal bovine serum (FBS; Thermo Fisher Scientific, Waltham, MA, USA) and 2 mM L-glutamine (Thermo Fisher Scientific, Waltham, MA, USA).
(§2) The HIV-1 strain NL4.3 (X4) and HIV-2 strain ROD (X4/R5) were obtained from the National Institute of Allergy and Infectious Disease AIDS program (Bethesda, MD, USA) and the Medical Research Council (MRC, London, UK), respectively. The HIV-1 strain HE (X4/R5) was originally isolated from a AIDS patient and was routinely cultured in MT-4 cells. The 50% tissue culture infectious doses of the virus stocks were used in the infection assays.
(§3) To determine the anti-HIV-activity of the compounds, MT-4 cells (5 × 10^4 cells) were treated with 5-fold dilutions of the compounds for 30 min at 37 °C, 5% CO2 in 96-well-plates. After 30 min, cells were infected with 100 TCID50 (tissue culture infective dose 50%) HIV-1 (NL4.3) or HIV-2 (ROD) virus stocks. After five days of incubation (37 °C, 5% CO2), the cytopathic effect was checked microscopically, and cell viability was evaluated using the MTS/PES-based CellTiter 96 Aqueous One Solution Cell Proliferation assay (Promega Madison, WI, USA). Absorbance at 490 nm was measured using the VersaMax ELISATM microplate reader (Molecular Devices) and analyzed with the SoftMax Pro software (Molecular Devices, Version 4.0, www.moleculardevices.com, accessed on 10 January 2015). The IC50-values were calculated based on the absorbance signals measured in the negative (i.e., untreated and uninfected cells) and positive (i.e., untreated virus-infected cells) control samples.

For a further series, the system named is HIV-2 ROD. The series is described as follows: anti-HIV replication assay, HIV-2 ROD in MT-4 cells (MTS/PES viability readout). Format: cell-based. The conditions noted are these: Human immunodeficiency virus 2, MT4, 120 h, read-out: IC50 HIV-2. On the procedure:
as §1, §2, §3

The nature of series [1]: cellular toxicity in uninfected MT-4 cells (MTS method). Format: cell-based. The conditions noted are these: human. How it is done: as §1, §3
The CC50 or 50% cellular cytoxic concentration of compounds was determined from the reduction of viability of uninfected MT-4 cells or PBMCs exposed to the compounds, as measured by the MTS method described above.
(Formazan colour is commonly taken as a measure of viable cells.)

Where [2] appears, read: Human immunodeficiency virus 1, MT4, 120 h, read-out: IC50 HIV-1.
The mark [3] stands for this setting: Human immunodeficiency virus 1, MT4, read-out: IC50 values, anti-HIV activity.

We go through eleven compounds from paper PMC11990108, “Anti-HIV Activity of Tigliane Derivatives from Euphorbia nicaeensis Roots” (Molecules, 2025).

A word on the IC50: it is the concentration needed to halve the response being measured. What is called CC50 is the concentration that lowers cell viability or growth by half. High values mean lower toxicity to the cells, low ones greater toxicity to the cells.

Structures are written as SMILES. Read-outs that look alike come from different tables or passages of the source. Bounds are passed on as bounds.

Regarding `CCCCCCCCCCCCCCCC(=O)O[C@@]12C[C@@H](C)[C@@]3(O)[C@@H](C=C(CO)C[C@]4(O)C(=O)C(C)=C[C@@H]34)[C@@H]1C2(C)C` [12-deoxyphorbol-13-hexadecanoate], the IC50 in the series with HIV-1 is 0.022 µM.

Take `c1cc(CN2CCCNCCNCCCNCC2)ccc1CN1CCCNCCNCCCNCC1` [AMD3100, reference compound]: the IC50 was 0.008 ± 0.002 µM in the series with HIV-1 NL4.3 (Human immunodeficiency virus 1, MT4, 120 h, HIV-1 NL4.3 replication in MT-4 cells, five days, read-out: IC50 HIV-1) and 0.0075 ± 0.0005 µM in the series on HIV-2 ROD (HIV-2 ROD replication in MT-4 cells, five days). This compound also yielded a CC50 at 5 days in series [1] of more than 10 µM.

For the compound `CC(=O)O[C@@]12[C@H](OC(=O)c3ccccc3)[C@@H](C)[C@]3(O)[C@@H]4C=C(C)C(=O)[C@@H]4CC(C)=C[C@H]3[C@@H]1C2(C)C` [Compound 1, 13α-Acetyloxy-12β-benzoyloxy-4-epi-4,20-dideoxyphorbol], the IC50 in the series on HIV-1 NL4.3 (setting [2]) was more than 42 µM; in the series with HIV-2 ROD it was 9.4 ± 1.4 µM. Moreover, the half-maximal cytotoxic concentration (CC50) at 5 days in series [1] is 42 µM.

For `CC(=O)O[C@@]12[C@H](OC(=O)c3ccccc3)[C@@H](C)[C@]3(O)[C@@H]4C=C(C)C(=O)[C@H]4CC(C)=C[C@H]3[C@@H]1C2(C)C` [Compound 2, 13α-Acetyloxy-12β-benzoyloxy-4,20-dideoxyphorbol], the IC50 with HIV-1 NL4.3 (setting [2]) is 7.5 ± 0.2 µM; with HIV-1 NL4.3 (setting [3]), 1.1 to 7.47 µM; in the series with HIV-2 ROD, 1.7 ± 1.3 µM. This compound displayed a CC50 at 5 days in series [1] of 94 µM.

Turning to `CC1=C[C@H]2[C@@H]3C(C)(C)[C@]3(OC(=O)CC(C)C)[C@H](OC(=O)c3ccccc3)[C@@H](C)[C@]2(O)[C@@H]2C=C(C)C(=O)[C@@H]2C1` [Compound 3, 12β-Benzoyloxy-13α-isovaleryloxy-4-epi-4,20-dideoxyphorbol], the concentration for half-maximal inhibition (IC50) in the series on HIV-1 NL4.3 (setting [2]) and in the series on HIV-2 ROD was more than 18 µM in each case. In series [1], this compound registered a 50% cytotoxic concentration (CC50) at 5 days of 17.6 ± 0.3 µM.

Regarding `CC(=O)O[C@@H]1[C@@H](C)[C@]2(O)[C@@H]3C=C(C)C(=O)[C@@H]3CC(C)=C[C@H]2[C@@H]2C(C)(C)[C@]12OC(=O)CC(C)C` [Compound 4, 12β-Acetyloxy-13α-isovaleryloxy-4-epi-4,20-dideoxyphorbol], the IC50 with HIV-1 NL4.3 (setting [2]) and in the series on HIV-2 ROD was more than 52 µM in each case. Half-maximal cytotoxicity in series [1] (CC50 at 5 days) was put at 52 µM.

As to `CC1=C[C@H]2[C@@H]3C(C)(C)[C@]3(OC(=O)C(C)C)[C@H](OC(=O)c3ccccc3)[C@@H](C)[C@]2(O)[C@@H]2C=C(C)C(=O)[C@@H]2C1` [Compound 5, 12β-benzoyloxy-13α-isobutanoyloxy-4-epi-4,20-dideoxyphforbol], the IC50 in the series on HIV-1 NL4.3 (setting [2]) is more than 34 µM; in the series with HIV-2 ROD, 4.6 ± 2.3 µM. Besides, in series [1], half-maximal cytotoxicity (CC50 at 5 days) was put at 33.5 ± 0.4 µM.

Take `CC(=O)O[C@@H]1[C@@H](C)[C@]2(O)[C@@H]3C=C(C)C(=O)[C@@H]3CC(C)=C[C@H]2[C@@H]2C(C)(C)[C@]12OC(=O)C(C)C` [Compound 6, 12β-acetyloxy-13α-isobutanoyloxy-4-epi-4,20-dideoxyphorbol]: the 50% inhibitory concentration (IC50) in the series with HIV-1 NL4.3 (setting [2]) and in the series on HIV-2 ROD was more than 101 µM each time. This compound also showed a CC50 at 5 days in series [1] of 101 µM.

For `CC(=O)OCC1=C[C@H]2[C@@H]3C(C)(C)[C@]3(OC(C)=O)[C@H](OC(=O)c3ccccc3)[C@@H](C)[C@]2(O)[C@@H]2C=C(C)C(=O)[C@@H]2C1` [Compound 8, 13α,20-diacetylohy-12β-benzoyloxy-4-epi-4-deoxyphorbol], the half-maximal inhibitory concentration (IC50) is 3.3 ± 1.8 µM in the series with HIV-1 NL4.3 (setting [2]), 1.1 to 7.47 µM in the series on HIV-1 NL4.3 (setting [3]) and 1.1 ± 0.8 µM in the series with HIV-2 ROD. Half-maximal cytotoxicity in series [1] (CC50 at 5 days) was put at 20.8 ± 5.6 µM.

Consider `C[C@H](Cn1cnc2c(N)ncnc21)OCP(=O)(O)O` [PMPA, reference compound], for which the concentration for half-maximal inhibition (IC50) with HIV-1 NL4.3 (setting [2]) came to 2.4 ± 0.7 µM; in the series with HIV-2 ROD, 0.7 ± 0.5 µM. In series [1], this compound showed a CC50 at 5 days of more than 100 µM.

As to `CCCCCCCC(=O)O[C@@]12[C@H](OC(=O)c3ccccc3)[C@@H](C)[C@]3(O)[C@@H]4C=C(C)C(=O)[C@@]4(O)[C@H](O)C(CO)=C[C@H]3[C@@H]1C2(C)C` [stelleracin C], the half-maximal inhibitory concentration (IC50) in the series on HIV-1 was 0.0023 µM.
